Drawing on BindingDB's records for doi:10.7270/Q2HT2MVZ (Burnham Center For Chemical Genomics, 2011), this text covers IC50 for 1 compound.

Some results are limits rather than exact numbers.

For this test, the target named is T1, Sentrin-specific protease 8 (Homo sapiens, UniProt Q96LD8).
T1 sequence (Q96LD8 whole entry): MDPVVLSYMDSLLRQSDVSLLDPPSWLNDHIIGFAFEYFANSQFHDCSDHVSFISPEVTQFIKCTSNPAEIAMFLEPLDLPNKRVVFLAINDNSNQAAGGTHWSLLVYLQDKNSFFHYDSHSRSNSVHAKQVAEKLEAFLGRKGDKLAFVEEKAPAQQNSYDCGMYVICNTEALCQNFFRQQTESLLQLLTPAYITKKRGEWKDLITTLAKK
The test is described as follows: SENP8 protease inhibitors, SAR follow-up, biochemical, luminescence, set 2 (AID 588601).

Turning to `CCOC1=CC(=CC(C#N)c2nc(-c3ccc(C)cc3)no2)C=C(Cl)C1=O` (stereo unspecified), the IC50 was > 99 µM.
